Test results: patent US8476248B2, “Process for the preparation of a water-soluble complex having resveratrol compounds; products comprising said complex; and uses thereof” (Uniao Brasileira de Educacao e Assistencia—Mantenedora da …, priority 2007, dated 2013)
≈ marks a conversion by molar mass, not a printed value.

What was measured:
[1] = background statement; cited from earlier work
[2] = physchem; type: physicochemical
Procedure: Ten mg, 100 mg, 500 mg, 1000 mg and 2000 mg of β-CD/Res complex were put in 100 mL volumetric flasks and water was added until completing their volume. The solutions stayed at ultrasound for 60 minutes. Then samples were centrifuged and filtered in a 0.45 μm pore diameter cellulose acetate membrane. Twenty μL portions of the samples were diluted 2000 times and their absorbances were measured by a UV-VIS spectrophotometer (FIG. 2). It was noticed that system saturation happens from 1000 mg of β-CD/Res (FIG. 3). The concentration of trans-resveratrol in 1000 mg and 2000 mg β-CD/Res sample concentrations was determined by High-Performance Liquid Chromatography (HPLC). For quantification, an external calibration curve was used, with trans-resveratrol concentrations ranging from 0.10 a 200.0 mg.L^−1. HPLC was carried out in isocratic elution (flow of 1.0 mL min^−1), with an aqueous solution of 25% acetonitrile, pH 3.0, adjusted with H3PO4. The chromatograph was equipped with UV-VIS detector and a C18 column, 5 μm 250×4.6 mm. Sample portions were diluted 1000 times with eluent, and 20 μL were injected and detected in 306 nm. The concentrations of trans-resveratrol of the 1000 mg sample of β-CD/Res complex were 3010±62 mg.L^−1 and of the 2000 mg sample of βCD/Res complex were 2960.5±53 mg.L^−1. […] All analyses were carried out in quintuplicate.

Solubility ([2]; 60 min): 27.5 µg/mL (≈ 120 µM)
solubility at 60 min ([2]; water, thermodynamic from solid): 27.5 ± 0.45 µg/mL (≈ 120 µM)
SMILES: Oc1ccc(C=Cc2cc(O)cc(O)c2)cc1 [trans-resveratrol, 3,5,4′-trihydroxystilbene]
water solubility [1]: less than 0.03 g/L
